This passage reports Km results from publication PMC10909971, “Glucose 6‐phosphate dehydrogenase variants increase NADPH pools for yeast isoprenoid production” (FEBS Open Bio, 2024).

Residue numbers refer to the chain shown, from its start. Numbers in names are those of the source. Read-outs that look alike come from different tables or passages of the source.

Data set [1] relates to T1, G6PD-6PGL (linker-less fusion).
T1 construct: gene ZWF1
The settings on record: read-out: G6PD-6PGL, 100 mM Tris-HCl pH 8.0, 10 mM MgCl2, 25 °C, G6PD domain.

Data set [2] concerns T2, G6PD-L-6PGL (fusion with linker).
T2 construct: gene ZWF1
The following applies: read-out: G6PD-L-6PGL, 100 mM Tris-HCl pH 8.0, 10 mM MgCl2, 25 °C, G6PD domain.

Substrate in the data set “purified protein”: NC(=O)c1ccc[n+]([C@@H]2O[C@H](COP(=O)(O)OP(=O)(O)OC[C@H]3O[C@@H](n4cnc5c(N)ncnc54)[C@H](OP(=O)(O)O)[C@@H]3O)[C@@H](O)[C@H]2O)c1
Description: purified protein. The settings on record: G6P held constant, 100 mM Tris-HCl pH 8.0, 10 mM MgCl2, 25 °C.

On to `NC(=O)c1ccc[n+]([C@@H]2O[C@H](COP(=O)(O)OP(=O)(O)OC[C@H]3O[C@@H](n4cnc5c(N)ncnc54)[C@H](OP(=O)(O)O)[C@@H]3O)[C@@H](O)[C@H]2O)c1` [NADP^+], for which the Km was determined as 2.6 ± 0.4 µM in data set [1] (G6P held constant) and 5.6 ± 0.2 µM in data set [2] (G6P held constant).

Take `O=P(O)(O)OC[C@H]1OC(O)[C@H](O)[C@@H](O)[C@@H]1O` (stereo partly drawn) [glucose 6‐phosphate]: the Km was determined as 0.6 µM in data set [1] (NADP+ held constant) and 2.3 ± 0.2 µM in data set [2] (NADP+ held constant).

B1: ScG6PD (G6PD, ZWF1) (Saccharomyces cerevisiae S288C) (protein)
chain: MSEGPVKFEKNTVISVFGASGDLAKKKTFPALFGLFREGYLDPSTKIFGYARSKLSMEEDLKSRVLPHLKKPHGEADDSKVEQFFKMVSYISGNYDTDEGFDELRTQIEKFEKSANVDVPHRLFYLALPPSVFLTVAKQIKSRVYAENGITRVIVEKPFGHDLASARELQKNLGPLFKEEELYRIDHYLGKELVKNLLVLRFGNQFLNASWNRDNIQSVQISFKERFGTEGRGGYFDSIGIIRDVMQNHLLQIMTLLTMERPVSFDPESIRDEKVKVLKAVAPIDTDDVLLGQYGKSEDGSKPAYVDDDTVDKDSKCVTFAAMTFNIENERWEGVPIMMRAGKALNESKVEIRLQYKAVASGVFKDIPNNELVIRVQPDAAVYLKFNAKTPGLSNATQVTDLNLTYASRYQDFWIPEAYEVLIRDALLGDHSNFVRDDELDISWGIFTPLLKHIERPDGPTPEIYPYGSRGPKGLKEYMQKHKYVMPEKHPYAWPVTKPEDTKDN
In the case of B1, the Km in the data set “purified protein” is 0.6 ± 0.1 µM.

B2: ScG6PD (G6PD, ZWF1) (Saccharomyces cerevisiae S288C; N403D) (protein)
chain: B1 chain with N403D
Consider B2, for which the Km in “purified protein” stood at 0.8 ± 0.1 µM.
